Test results reported in publication PMC11542607 (RSC Advances, 2024).

How the values were obtained:
[1] = test system: HCT116 (colorectal carcinoma); assay: MTT cytotoxicity assay, HCT-116; format: cell-based; details: Homo sapiens, HCT-116, read-out: IC50 HCT-116
[2] = test system: HeLa (cervical epithelioid carcinoma); assay: MTT cytotoxicity assay, HeLa; format: cell-based; details: Homo sapiens, read-out: IC50 HeLa
MCF-7 (breast cancer) = assay: MTT cytotoxicity assay, MCF-7; format: cell-based; details: Homo sapiens, MCF7, read-out: IC50 MCF-7
[3] = test system: WI-38 normal fibroblast cell line; assay: Cytotoxicity towards normal human cells; format: cell-based; details: WI-38, read-out: IC50 WI-38
EGFR = EGFR (Homo sapiens, UniProt P00533); assay: EGFR enzyme inhibition assay; format: biochemical
EGFR, sequence (P00533 25-1210): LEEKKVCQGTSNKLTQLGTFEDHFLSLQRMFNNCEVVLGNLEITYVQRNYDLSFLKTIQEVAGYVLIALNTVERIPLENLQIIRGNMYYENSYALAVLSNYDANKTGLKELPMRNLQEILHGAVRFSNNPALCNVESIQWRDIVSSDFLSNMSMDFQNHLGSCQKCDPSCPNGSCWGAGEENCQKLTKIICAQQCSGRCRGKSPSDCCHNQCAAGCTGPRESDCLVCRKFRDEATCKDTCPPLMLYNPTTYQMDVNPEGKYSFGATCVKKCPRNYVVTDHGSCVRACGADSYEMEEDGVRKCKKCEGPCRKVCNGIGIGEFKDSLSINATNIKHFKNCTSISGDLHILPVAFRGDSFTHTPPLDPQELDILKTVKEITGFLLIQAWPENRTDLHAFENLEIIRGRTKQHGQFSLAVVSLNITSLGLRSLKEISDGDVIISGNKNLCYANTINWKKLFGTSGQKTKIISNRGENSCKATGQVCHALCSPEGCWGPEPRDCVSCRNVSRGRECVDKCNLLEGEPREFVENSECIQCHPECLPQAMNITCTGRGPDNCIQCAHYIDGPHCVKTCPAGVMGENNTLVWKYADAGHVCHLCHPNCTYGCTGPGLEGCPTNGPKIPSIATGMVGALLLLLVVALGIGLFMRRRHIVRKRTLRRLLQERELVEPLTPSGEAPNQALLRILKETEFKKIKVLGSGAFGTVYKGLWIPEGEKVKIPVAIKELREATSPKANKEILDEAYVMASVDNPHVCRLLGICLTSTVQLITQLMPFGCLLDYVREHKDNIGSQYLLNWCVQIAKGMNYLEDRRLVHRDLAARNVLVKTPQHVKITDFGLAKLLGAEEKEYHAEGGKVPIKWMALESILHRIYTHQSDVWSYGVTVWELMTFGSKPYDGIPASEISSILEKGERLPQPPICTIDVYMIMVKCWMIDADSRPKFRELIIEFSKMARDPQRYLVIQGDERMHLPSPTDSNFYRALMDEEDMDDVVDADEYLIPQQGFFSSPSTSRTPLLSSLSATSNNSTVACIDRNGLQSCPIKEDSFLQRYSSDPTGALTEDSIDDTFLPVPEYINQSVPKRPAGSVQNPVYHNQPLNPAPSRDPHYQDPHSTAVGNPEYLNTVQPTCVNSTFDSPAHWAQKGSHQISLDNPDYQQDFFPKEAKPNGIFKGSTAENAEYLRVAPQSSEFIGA

TOP-II = TOP-II (Homo sapiens, UniProt P11388); assay: TOP-II enzyme inhibition assay; format: biochemical
TOP-II, sequence (P11388 whole entry): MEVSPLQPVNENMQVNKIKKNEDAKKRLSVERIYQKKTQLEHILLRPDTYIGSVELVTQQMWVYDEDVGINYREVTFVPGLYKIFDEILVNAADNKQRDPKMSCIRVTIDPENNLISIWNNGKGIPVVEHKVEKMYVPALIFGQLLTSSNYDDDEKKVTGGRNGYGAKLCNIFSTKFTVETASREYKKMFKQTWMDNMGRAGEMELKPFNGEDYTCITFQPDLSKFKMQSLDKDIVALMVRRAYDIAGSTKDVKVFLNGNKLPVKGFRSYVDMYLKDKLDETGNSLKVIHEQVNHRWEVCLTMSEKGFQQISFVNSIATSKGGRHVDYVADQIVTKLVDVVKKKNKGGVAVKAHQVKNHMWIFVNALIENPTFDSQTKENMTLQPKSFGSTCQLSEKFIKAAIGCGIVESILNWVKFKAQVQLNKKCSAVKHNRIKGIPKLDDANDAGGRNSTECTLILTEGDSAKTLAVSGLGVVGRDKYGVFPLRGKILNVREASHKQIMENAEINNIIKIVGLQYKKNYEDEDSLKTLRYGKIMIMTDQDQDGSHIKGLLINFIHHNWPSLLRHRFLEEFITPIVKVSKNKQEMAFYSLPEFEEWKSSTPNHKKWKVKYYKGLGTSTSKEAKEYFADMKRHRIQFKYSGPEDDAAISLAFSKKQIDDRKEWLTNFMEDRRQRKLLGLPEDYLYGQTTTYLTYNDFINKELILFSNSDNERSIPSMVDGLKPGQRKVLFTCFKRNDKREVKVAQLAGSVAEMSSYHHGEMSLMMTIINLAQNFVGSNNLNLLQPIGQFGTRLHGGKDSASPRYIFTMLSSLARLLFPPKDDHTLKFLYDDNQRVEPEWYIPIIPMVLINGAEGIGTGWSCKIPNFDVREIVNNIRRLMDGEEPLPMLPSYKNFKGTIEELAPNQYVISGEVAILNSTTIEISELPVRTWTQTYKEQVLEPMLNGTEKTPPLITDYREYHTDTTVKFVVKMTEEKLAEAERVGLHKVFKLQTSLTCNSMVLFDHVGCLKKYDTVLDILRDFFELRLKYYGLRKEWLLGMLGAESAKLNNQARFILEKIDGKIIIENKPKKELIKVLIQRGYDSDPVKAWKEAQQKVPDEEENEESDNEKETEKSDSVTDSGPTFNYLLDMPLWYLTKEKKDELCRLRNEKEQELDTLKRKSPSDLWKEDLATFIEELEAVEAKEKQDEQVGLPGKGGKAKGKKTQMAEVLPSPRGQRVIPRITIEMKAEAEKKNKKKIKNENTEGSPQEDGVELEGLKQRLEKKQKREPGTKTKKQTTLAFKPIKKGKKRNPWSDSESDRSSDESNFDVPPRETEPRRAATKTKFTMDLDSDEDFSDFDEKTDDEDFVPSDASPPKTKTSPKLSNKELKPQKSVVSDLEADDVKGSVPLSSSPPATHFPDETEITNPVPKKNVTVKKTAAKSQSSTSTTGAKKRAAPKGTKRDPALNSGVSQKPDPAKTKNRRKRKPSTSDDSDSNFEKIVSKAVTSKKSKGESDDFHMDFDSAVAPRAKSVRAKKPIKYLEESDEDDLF

aromatase (ARO) = target: T1, aromatase (ARO) (Homo sapiens, UniProt P11511); assay: Aromatase enzyme inhibition assay; format: biochemical
T1 sequence (P11511 1-503): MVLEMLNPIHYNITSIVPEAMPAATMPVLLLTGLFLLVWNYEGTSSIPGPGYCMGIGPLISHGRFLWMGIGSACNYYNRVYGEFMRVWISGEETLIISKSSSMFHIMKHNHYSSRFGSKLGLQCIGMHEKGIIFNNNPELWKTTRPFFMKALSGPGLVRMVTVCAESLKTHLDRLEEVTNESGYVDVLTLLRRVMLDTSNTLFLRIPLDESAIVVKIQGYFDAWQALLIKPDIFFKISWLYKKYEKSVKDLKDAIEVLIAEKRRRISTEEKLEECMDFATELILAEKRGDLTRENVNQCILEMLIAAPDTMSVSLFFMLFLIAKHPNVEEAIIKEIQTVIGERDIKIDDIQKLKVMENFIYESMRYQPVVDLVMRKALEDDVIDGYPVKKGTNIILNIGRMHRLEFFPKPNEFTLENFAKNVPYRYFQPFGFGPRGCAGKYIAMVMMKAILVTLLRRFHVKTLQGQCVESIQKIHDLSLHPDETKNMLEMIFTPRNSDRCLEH

HER-2 = HER-2 (Homo sapiens, UniProt P04626); assay: biochemical
HER-2, sequence (P04626 23-1255): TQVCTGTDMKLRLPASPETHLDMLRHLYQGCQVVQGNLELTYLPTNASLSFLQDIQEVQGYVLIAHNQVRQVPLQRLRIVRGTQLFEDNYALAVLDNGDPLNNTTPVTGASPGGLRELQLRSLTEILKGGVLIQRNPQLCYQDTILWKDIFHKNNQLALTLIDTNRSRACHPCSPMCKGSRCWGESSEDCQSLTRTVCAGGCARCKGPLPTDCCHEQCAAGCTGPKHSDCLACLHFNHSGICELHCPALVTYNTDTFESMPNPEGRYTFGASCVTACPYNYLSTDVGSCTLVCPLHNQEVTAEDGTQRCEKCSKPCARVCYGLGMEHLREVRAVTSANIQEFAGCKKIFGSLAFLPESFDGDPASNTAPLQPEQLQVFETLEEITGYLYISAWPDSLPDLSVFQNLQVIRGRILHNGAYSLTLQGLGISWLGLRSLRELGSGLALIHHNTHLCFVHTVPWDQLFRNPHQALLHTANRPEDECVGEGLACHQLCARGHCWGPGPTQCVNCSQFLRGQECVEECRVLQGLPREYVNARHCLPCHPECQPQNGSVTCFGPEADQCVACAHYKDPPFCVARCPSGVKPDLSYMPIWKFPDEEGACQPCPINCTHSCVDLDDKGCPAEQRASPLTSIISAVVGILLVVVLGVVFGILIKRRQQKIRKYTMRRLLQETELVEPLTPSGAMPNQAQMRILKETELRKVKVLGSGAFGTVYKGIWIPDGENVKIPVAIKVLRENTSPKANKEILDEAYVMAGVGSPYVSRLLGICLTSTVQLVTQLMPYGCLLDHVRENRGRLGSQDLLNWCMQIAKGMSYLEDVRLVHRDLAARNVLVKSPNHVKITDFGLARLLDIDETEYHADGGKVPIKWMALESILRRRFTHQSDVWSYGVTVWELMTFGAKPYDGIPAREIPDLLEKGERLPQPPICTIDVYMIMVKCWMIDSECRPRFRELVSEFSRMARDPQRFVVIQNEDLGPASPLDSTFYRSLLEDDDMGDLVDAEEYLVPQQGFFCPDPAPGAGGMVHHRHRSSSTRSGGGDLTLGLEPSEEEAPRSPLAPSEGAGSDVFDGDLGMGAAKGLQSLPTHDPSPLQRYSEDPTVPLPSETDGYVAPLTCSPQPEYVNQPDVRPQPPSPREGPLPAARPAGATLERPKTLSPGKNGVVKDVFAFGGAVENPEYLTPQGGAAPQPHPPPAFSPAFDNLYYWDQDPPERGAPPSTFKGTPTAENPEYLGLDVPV

MCF-7 cells = assay: Flow cytometry cell cycle analysis; format: cell-based, human
[4] = test system: DMBA-induced breast cancer; assay: In vivo DMBA-induced breast cancer model; set-up: species or system mice; details: day 20; for Final tumor volume: untreated DMBA group approximately 2.4 mm^3
[5] = Body weight in DMBA-induced breast cancer model; format: in vivo; details: DMBA model mice; for Body weight at day 20: control 28.91 g, DMBA 35.2 g; for Body weight at start: start of 20 days period, control 20.51 g, DMBA 18.8 g
caspase-3 = assay: Caspase-3 immunostaining of mammary tissue in DMBA model; format: in vivo, mice; details: for caspase-3 positive cells: immunostaining, mean ± standard error (n = 5), control 4.5 ± 0.2, DMBA 0.5 ± 0.1

SMILES | IC50 [1] | IC50 [2] | IC50 (MCF-7 (breast cancer)) | IC50 [3] | other results
Cc1cc(N2CCN(C(=O)CN3CCOCC3)CC2)n2ncnc2n1 [Compound 7e, 1-(4-(5-Methyl-[1,2,4]triazolo[1,5-a]pyrimidin-7-yl)piperazin-1-yl)-2-morpholinoethanone] | 88.4 ± 4.5 µM | 78.5 ± 4.2 µM | 84.7 ± 4.1 µM | 26.3 ± 1.9 µM | –
Cc1cc(Sc2nnc(NC(=O)Nc3ccccc3)s2)n2ncnc2n1 [Compound 9a, 1-(5-((5-Methyl-[1,2,4]triazolo[1,5-a]pyrimidin-7-yl)thio)-1,3,4-thiadiazol-2-yl)-3-phenylurea] | 44.4 ± 2.6 µM | 25.2 ± 2 µM | 37.2 ± 2.3 µM | 48.4 ± 2.6 µM | –
Cc1cc(Sc2nnc(NC(=O)Nc3ccc(Cl)cc3)s2)n2ncnc2n1 [Compound 9b, 1-(4-Chlorophenyl)-3-(5-((5-methyl-[1,2,4]triazolo[1,5-a]pyrimidin-7-yl)thio)-1,3,4-thiadiazol-2-yl)urea] | > 100 µM | 87.7 ± 4.4 µM | > 100 µM | 64.7 ± 3.5 µM | –
Cc1ccc(NC(=O)Nc2nnc(Sc3cc(C)nc4ncnn34)s2)cc1 [Compound 9c, 1-(5-((5-Methyl-[1,2,4]triazolo[1,5-a]pyrimidin-7-yl)thio)-1,3,4-thiadiazol-2-yl)-3-(p-tolyl)urea] | 58.5 ± 3.3 µM | 51.9 ± 2.8 µM | 46.1 ± 2.5 µM | 18.1 ± 1.3 µM | –
COc1ccc(NC(=O)Nc2nnc(Sc3cc(C)nc4ncnn34)s2)cc1 [Compound 9d, 1-(4-Methoxyphenyl)-3-(5-((5-methyl-[1,2,4]triazolo[1,5-a]pyrimidin-7-yl)thio)-1,3,4-thiadiazol-2-yl)urea] | > 100 µM | 82.4 ± 4.1 µM | 92.4 ± 4.4 µM | > 100 µM | –
Cc1cc(Sc2nc(-c3ccc(Br)cc3)c(C#N)c(=O)[nH]2)n2ncnc2n1 [Compound 11a, 4-(4-Bromophenyl)-2-((5-methyl-[1,2,4]triazolo[1,5-a]pyrimidin-7-yl)thio)-6-oxo-1,6-dihydropyrimidine-5-carbonitrile] | 41 ± 2.4 µM | 33.4 ± 2.3 µM | 30.5 ± 2.1 µM | 75.9 ± 4.1 µM | –
Cc1cc(Sc2nc(-c3ccc(Cl)cc3)c(C#N)c(=O)[nH]2)n2ncnc2n1 [Compound 11b, 4-(4-Chlorophenyl)-2-((5-methyl-[1,2,4]triazolo[1,5-a]pyrimidin-7-yl)thio)-6-oxo-1,6-dihydropyrimidine-5-carbonitrile] | 12.6 ± 1 µM | 17.5 ± 1.4 µM | 8.39 ± 0.6 µM | 56.2 ± 3 µM | –
Cc1ccc(-c2nc(Sc3cc(C)nc4ncnn34)[nH]c(=O)c2C#N)cc1 [Compound 11c, 2-((5-Methyl-[1,2,4]triazolo[1,5-a]pyrimidin-7-yl)thio)-6-oxo-4-(p-tolyl)-1,6-dihydropyrimidine-5-carbonitrile] | 21.5 ± 1.5 µM | 19.2 ± 1.6 µM | 9.15 ± 0.7 µM | 45 ± 2.4 µM | –
COc1ccc(-c2nc(Sc3cc(C)nc4ncnn34)[nH]c(=O)c2C#N)cc1 [Compound 11d, 4-(4-Methoxyphenyl)-2-((5-methyl-[1,2,4]triazolo[1,5-a]pyrimidin-7-yl)thio)-6-oxo-1,6-dihydropyrimidine-5-carbonitrile] | 47.9 ± 2.7 µM | 63.4 ± 3.6 µM | 34.6 ± 2.3 µM | 71.2 ± 3.9 µM | –
COc1ccc(-c2nc(Sc3cc(C)nc4ncnn34)[nH]c(=O)c2C#N)cc1OC [Compound 11e, 4-(3,4-Dimethoxyphenyl)-2-((5-methyl-[1,2,4]triazolo[1,5-a]pyrimidin-7-yl)thio)-6-oxo-1,6-dihydropyrimidine-5-carbonitrile] | 8.89 ± 0.8 µM | 13.6 ± 1.1 µM | 5.92 ± 0.3 µM | 60.3 ± 3.3 µM | IC50 (EGFR): 0.246 µM; IC50 (TOP-II): 36.7 µM; IC50 (aromatase (ARO)): 0.38 µM; IC50 (HER-2): 0.116 µM
Cc1cc(Sc2nc(-c3cccc(Br)c3)c(C#N)c(=O)[nH]2)n2ncnc2n1 [Compound 11f, 4-(3-Bromophenyl)-2-((5-methyl-[1,2,4]triazolo[1,5-a]pyrimidin-7-yl)thio)-6-oxo-1,6-dihydropyrimidine-5-carbonitrile] | 31.2 ± 2.2 µM | 35.9 ± 2.2 µM | 22.2 ± 1.6 µM | 77.3 ± 4.3 µM | –
Cc1cc(Sc2nnc(-c3ccccc3)o2)n2ncnc2n1 [Compound 13a, 2-((5-Methyl-[1,2,4]triazolo[1,5-a]pyrimidin-7-yl)thio)-5-phenyl-1,3,4-oxadiazole] | 15 ± 1.2 µM | 23.6 ± 1.9 µM | 18.6 ± 1.3 µM | 91.4 ± 4.9 µM | –
Cc1ccc(-c2nnc(Sc3cc(C)nc4ncnn34)o2)cc1 [Compound 13b, 2-((5-Methyl-[1,2,4]triazolo[1,5-a]pyrimidin-7-yl)thio)-5-(p-tolyl)-1,3,4-oxadiazole] | 29.3 ± 2 µM | 39 ± 2.4 µM | 27.8 ± 2 µM | 83.5 ± 4.5 µM | –
Cc1cc(Sc2nnc(-c3ccc([N+](=O)[O-])cc3)o2)n2ncnc2n1 [Compound 13c, 2-((5-Methyl-[1,2,4]triazolo[1,5-a]pyrimidin-7-yl)thio)-5-(4-nitrophenyl)-1,3,4-oxadiazole] | 6.1 ± 0.5 µM | 10.3 ± 0.9 µM | 2.42 ± 0.1 µM | 38.6 ± 2.2 µM | IC50 (EGFR): 0.087 µM; IC50 (TOP-II): 31.6 µM; IC50 (aromatase (ARO)): 0.156 µM; Cell cycle distribution G2-M (MCF-7 cells; DMSO control 18.18): 10.32%; Cell cycle distribution S (MCF-7 cells; DMSO control 24.83): 37.01%; Cell cycle distribution G0-G1 (MCF-7 cells; DMSO control 56.99): 52.67%; Reduction in final tumor volume compared to untreated DMBA group [4]: 62.5%; Final tumor volume [4]: about 0.9 mm^3; Body weight at day 20 [5]: 30.6 g; Body weight at start [5]: 20.2 g; caspase-3 positive cells (caspase-3): 2.3 ± 0.3 cells; Increase of caspase-3 positive cells from the DMBA group (caspase-3; mouse, in vivo): 360%; Share of the control's apoptotic activity (caspase-3) (caspase-3; mouse, in vivo): about 51%; IC50 (HER-2): 0.078 µM
Cc1cc(Sc2nnc(-c3ccc(Cl)cc3)o2)n2ncnc2n1 [Compound 13d, 2-(4-Chlorophenyl)-5-((5-methyl-[1,2,4]triazolo[1,5-a]pyrimidin-7-yl)thio)-1,3,4-oxadiazole] | 24.8 ± 1.8 µM | 42.9 ± 2.5 µM | 14.2 ± 1.1 µM | 66.1 ± 3.8 µM | –
Cc1cc(Sc2nnc(-c3ccc(Br)cc3)o2)n2ncnc2n1 [Compound 13e, 2-(4-Bromophenyl)-5-((5-methyl-[1,2,4]triazolo[1,5-a]pyrimidin-7-yl)thio)-1,3,4-oxadiazole] | 55.1 ± 3.5 µM | 57.4 ± 3.2 µM | 42.6 ± 2.4 µM | > 100 µM | –
COc1cccc2c1C(=O)c1c(O)c3c(c(O)c1C2=O)C[C@@](O)(C(=O)CO)C[C@@H]3O[C@H]1C[C@H](N)[C@H](O)[C@H](C)O1 [DOX, Doxorubicin, reference compound] | – | – | – | – | IC50 (TOP-II): 34 µM; Reduction in final tumor volume compared to untreated DMBA group [4]: 75%; Final tumor volume [4]: approximately 0.6 mm^3; Body weight at day 20 [5]: 31.8 g; Body weight at start [5]: 19.8 g; caspase-3 positive cells (caspase-3): 4.0 ± 0.2 cells; Decrease of caspase-3 positive cells from the control (caspase-3; mouse, in vivo): 11%; Increase of caspase-3 positive cells from the DMBA group (caspase-3; mouse, in vivo): 700%
